Assay results as given in patent publication US5883293A, “Conformationally constrained backbone cyclized peptide analogs” (Peptor Ltd., priority 1994, dated 1999).
Numbered stars: 1 amine (or outer) side, 2 acyl side, 3 side chain; on linkers, the order of the positions; unused ones are H or OH. Bridge positions count the residues as written; N and C are the ends. Square brackets hold non-standard residues; d marks the D form. Peptide text beside a SMILES is read from it. NGly(3-aminopropyl) = O=C(CN(CCCN[*:3])[*:1])[*:2]; N(2-Aminoethyl)Gly = O=C(CN(CCN[*:3])[*:1])[*:2]; N(CH2CH2CO)Gly = O=C(CN(CCC(=O)[*:3])[*:1])[*:2]; N(CH2CH2COOH)Gly = O=C(O)CCNCC(=O)O; Gly(N(CH2)3NH2) = NCCCNCC(=O)O

Key:
[1] = In vitro biostability in human serum (HPLC determination of peptide degradation); type: in vitro ADME; details: 37° C., FIG. 1
Procedure: FIG. 1 is a graph showing in vitro biostability of somatostatin and three analogs thereof in human serum. The graph depicts the percentage of undegraded molecules for each of the compounds initially and after various periods of time.
Resistance to biodegradation of SST analogs
The in vitro biostability of a SST cyclic peptide analog, PTR 3002, was measured in human serum, and was compared to the same sequence in a non-cyclic peptide analog (PTR 3001), to octreotide (Sandostatin), and to native somatostatin (SRIF). […] The assay was based on HPLC determination of peptide degradation as a function of time at 37° C.

[2] = system: Somatostatin Receptor (SSTR) Subtype SSTR-2B; experiment: Inhibition of radioactive iodinated somatostatin (SRIF-14) binding, CHO cells expressing SSTR-2B; details: read-out: percent inhibition of SRIF-14 binding, SSTR-2B; for inhibition at 1 µM: Conc. 10^-6 M; for inhibition at 0.1 µM: Conc. 10^-7 M; for inhibition at 0.01 µM: Conc. 10^-8 M
Description: (§1) Receptor binding specificity of cyclic peptide analogs
(§2) The values presented are percent inhibition of radioactive iodinated somatostatin (SRIF-14) binding.

[3] = target: Somatostatin Receptor (SSTR) Subtype SSTR-5 (Homo sapiens, UniProt P35346); experiment: Inhibition of radioactive iodinated somatostatin (SRIF-14) binding, CHO cells expressing SSTR-5; details: read-out: percent inhibition of SRIF-14 binding, SSTR-5; for inhibition at 1 µM: Conc. 10^-6 M; for inhibition at 0.1 µM: Conc. 10^-7 M; for inhibition at 0.01 µM: Conc. 10^-8 M
Description: as §1, §2

[4] = Lack of toxicity of cyclized peptide analogs in rats; type: in vivo
Description: Lack of toxicity of cyclized peptide analogs
These two doses are several orders of magnitude higher than those needed to elicit the desired endocrine effect. The peptides dissolved in saline produced no untoward side effects on the central nervous system, cardiovascular system, body temperature, nor on the periphery of the animals.

[5] = target: T1, bradykinin receptors (PC 12 cells) (Rattus norvegicus, UniProt P25023); experiment: Bradykinin antagonist assay: (3H)dopamine release from PC 12 cells; type: cell-based; details: at 10^-6 M; (3H)DA release stimulated by bradykinin, PC12 cells
T1 construct: PC 12 cells that express bradykinin receptors; endogenous in cells; host or cells: PC12 cells
T1 sequence (P25023 1-396): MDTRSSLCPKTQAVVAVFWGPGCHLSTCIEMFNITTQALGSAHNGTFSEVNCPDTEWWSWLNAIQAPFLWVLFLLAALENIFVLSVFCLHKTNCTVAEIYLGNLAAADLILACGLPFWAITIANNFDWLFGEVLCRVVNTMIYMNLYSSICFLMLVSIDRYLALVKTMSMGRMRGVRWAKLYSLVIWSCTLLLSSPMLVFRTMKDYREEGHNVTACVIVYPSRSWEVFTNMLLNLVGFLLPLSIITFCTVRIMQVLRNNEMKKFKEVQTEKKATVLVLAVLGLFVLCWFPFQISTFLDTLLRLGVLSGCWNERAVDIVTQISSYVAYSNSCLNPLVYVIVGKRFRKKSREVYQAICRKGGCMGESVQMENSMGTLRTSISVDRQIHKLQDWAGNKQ
Procedure: BRADYKININ ANTAGONIST ASSAY (Displacement of (^3 H)dopamine release from PC 12 cells)
Novel backbone cyclized peptide analogs of the present invention were assayed in vitro for bradykinin antagonist activity by protection of (^3 H)dopamine release from PC 12 cells that express bradykinin receptors. PC12 cells were grown in Dulbecco Modified Eagle's medium with high glucose, supplemented with 10% horse serum, 5% fetal calf serum, 130 units/ml penicillin and 0.1 mg/ml streptomycin. For experiments, cells were removed from the medium using 1 mmole EDTA and replated on collagen coated-12-well plates and assayed 24 hr later. Release of (^3 H)dopamine was determined as follows: cells were incubated for 1.5 hr at 37° C. with 0.5 ml of growth medium and […] (^3 H)DA (41 Ci/mmole) and […] pargyline followed by extensive washing with medium (3×1 ml) and release buffer consisting of (mM): 130 NaCl; 5 KCl; 25 NaHCO3; 1 NaH2 PO4; 10 glucose and 1.8 CaCl2. In a typical experiment, cells were incubated with 0.5 ml buffer for 5 consecutive incubation periods of 3 min each at 37° C. Spontaneous (^3 H)DA release was measured by collecting the medium released by the cells successively for the first 3 min period. Antagonists were added to the cells 3 min prior to stimulation (at the second period), and stimulation of (^3 H)DA release by 100 nmole of bradykinin are monitored during the 3 period by 60 mmole KCl. The remaining of the (^3 H)DA was extracted from the cells by over night incubation with 0.5 ml 0.1N HCl. (^3 H)DA release during each 3 min period was expressed as a % of the total (^3 H)DA content of the cells. Net evoked release was calculated from (^3 H)DA release during stimulation period after subtracting basal (^3 H)DA release in the preceding baseline period if not indicated otherwise.

[6] = target: T2, BK2 receptors (Cavia porcellus, UniProt O70526); experiment: Bradykinin antagonist assay: guinea-pig ileum contraction; details: at 10^-6 M, BK 2×10^-8 M, atropine 1 μM present
T2 construct: This tissue contains predominantly BK2 receptors; from tissue; host or cells: guinea-pig ileum, longitudinal muscle layer with adhering mesenteric plexus
T2 sequence (O70526 1-372): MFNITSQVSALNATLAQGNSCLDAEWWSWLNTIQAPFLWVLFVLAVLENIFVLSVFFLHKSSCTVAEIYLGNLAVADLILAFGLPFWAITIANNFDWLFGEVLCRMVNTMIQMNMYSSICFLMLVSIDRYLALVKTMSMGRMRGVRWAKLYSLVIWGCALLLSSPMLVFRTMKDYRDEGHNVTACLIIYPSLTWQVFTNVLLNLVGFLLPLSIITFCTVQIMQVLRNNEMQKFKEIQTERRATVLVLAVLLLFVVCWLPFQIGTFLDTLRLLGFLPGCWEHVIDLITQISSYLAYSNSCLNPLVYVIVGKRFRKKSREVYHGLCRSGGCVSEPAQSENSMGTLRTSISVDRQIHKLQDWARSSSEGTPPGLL
Procedure: The ileum of the guinea-pig was selected as the preparation for the bioassay. This tissue contains predominantly BK2 receptors. The preparation consists of the longitudinal muscle layer with the adhering mesenteric plexus. The isolated preparation was kept in Krebs solution and contractions were measured with an isometric force transducer. […] Atropine (1 μM) was always present.

Chain of Somatostatin Receptor (SSTR) Subtype SSTR-2B (P30874 1-356 isoform P30874-2): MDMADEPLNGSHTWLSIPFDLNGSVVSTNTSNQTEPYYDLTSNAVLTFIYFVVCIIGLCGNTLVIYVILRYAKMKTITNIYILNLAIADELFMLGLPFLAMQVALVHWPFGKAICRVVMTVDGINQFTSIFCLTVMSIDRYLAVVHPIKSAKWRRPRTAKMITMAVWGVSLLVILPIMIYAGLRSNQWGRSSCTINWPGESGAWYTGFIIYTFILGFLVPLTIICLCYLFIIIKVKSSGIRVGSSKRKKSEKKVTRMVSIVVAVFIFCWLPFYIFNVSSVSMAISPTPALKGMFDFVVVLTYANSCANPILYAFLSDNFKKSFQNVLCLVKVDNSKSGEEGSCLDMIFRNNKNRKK
Chain of Somatostatin Receptor (SSTR) Subtype SSTR-5 (P35346 whole entry): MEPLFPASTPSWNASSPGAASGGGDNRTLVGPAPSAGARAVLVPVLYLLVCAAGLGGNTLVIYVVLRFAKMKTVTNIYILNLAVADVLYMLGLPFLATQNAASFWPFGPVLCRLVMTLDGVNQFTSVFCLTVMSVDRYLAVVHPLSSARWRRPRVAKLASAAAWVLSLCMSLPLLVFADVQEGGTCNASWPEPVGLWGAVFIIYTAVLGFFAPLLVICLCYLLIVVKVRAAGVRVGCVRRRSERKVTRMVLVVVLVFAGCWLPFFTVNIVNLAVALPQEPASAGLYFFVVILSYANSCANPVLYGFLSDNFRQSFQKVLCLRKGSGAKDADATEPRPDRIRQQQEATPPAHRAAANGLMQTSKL

Compound: C[C@@H](O)[C@H](NC(=O)CN1CCNC(=O)CCN(C(=O)[C@H](N)Cc2ccccc2)CC(=O)N[C@@H](Cc2ccccc2)C(=O)N[C@H](Cc2c[nH]c3ccccc23)C(=O)N[C@@H](CCCCN)C(=O)N[C@@H]([C@@H](C)O)C1=O)C(N)=O [PTR 3002] (H-[dF][N(CH2CH2CO)Gly]F[dW]KT[N(2-Aminoethyl)Gly]T-NH2; lactam 2-7)
- in vitro biostability in human serum [1]: as stable as octreotide, is more stable than the corresponding non-cyclic structure, and is much more stable than SRIF

Compound: C[C@@H](O)[C@H](NC(=O)CN(CCCN)C(=O)[C@@H](NC(=O)[C@H](CCCCN)NC(=O)[C@@H](Cc1c[nH]c2ccccc12)NC(=O)[C@H](Cc1ccccc1)NC(=O)CN(CC(=O)O)C(=O)[C@H](N)Cc1ccccc1)[C@@H](C)O)C(N)=O [PTR 3005]
- inhibition at 1 µM [2]: 0%
- inhibition at 0.1 µM [2]: 0%
- inhibition at 0.01 µM [2]: 0%
- inhibition at 1 µM [3]: 9%
- inhibition at 0.1 µM [3]: 0%
- inhibition at 0.01 µM [3]: 0%

Compound: C[C@@H](O)[C@H](NC(=O)CN1CCCNC(=O)CCN(C(=O)[C@H](N)Cc2ccccc2)CC(=O)N[C@@H](Cc2ccccc2)C(=O)N[C@H](Cc2c[nH]c3ccccc23)C(=O)N[C@@H](CCCCN)C(=O)N[C@@H]([C@@H](C)O)C1=O)C(N)=O [PTR 3007] (H-[dF][N(CH2CH2CO)Gly]F[dW]KT[NGly(3-aminopropyl)]T-NH2; lactam 2-7)
- respiratory disturbances, stereotyped behavior, muscle tone ([4]; rats observed for 4 hours post administration): no respiratory disturbances
- tolerability after single intraperitoneal application ([4]; rats, dose of 1.5 mg/kg): well tolerated

Compound: C[C@@H](O)[C@H](NC(=O)CN(CCCN)C(=O)[C@@H](NC(=O)[C@H](CCCCN)NC(=O)[C@@H](Cc1c[nH]c2ccccc12)NC(=O)[C@H](Cc1ccccc1)NC(=O)CN(CCC(=O)O)C(=O)[C@H](N)Cc1ccccc1)[C@@H](C)O)C(N)=O [PTR 3008] (H-[dF][N(CH2CH2COOH)Gly]F[dW]KT[Gly(N(CH2)3NH2)]T-NH2)
- inhibition at 1 µM [2]: 0%
- inhibition at 0.1 µM [2]: 0%
- inhibition at 0.01 µM [2]: 0%
- inhibition at 1 µM [3]: 15%
- inhibition at 0.1 µM [3]: 6%
- inhibition at 0.01 µM [3]: 0%

Compound: Ada-(D)Arg-Arg-cyclo(N^α (1-(6-aminohexylene)Gly-Hyp-Phe-D-Asp)-D-Phe-Phe-Arg--OH [Example 1]
- inhibition of BK activity [5]: 30%

Compound: Ada-D-Arg-Arg-N^α (6-acetamidohexylene)Gly-Hyp-Phe-D-Asp(NH-Me)-D-Phe-Phe-Arg--OH [Example 2]
- inhibition of BK activity [6]: 0%
- inhibition of BK activity [5]: 0%

Compound: H-D-Arg-Arg-cyclo(N^α (4-propanoyl)Gly-Hyp-Phe-N^α (3-amido-propyl)-S-Phe)-Ser-D-Phe-Phe-Arg--OH [Example 4]
- inhibition of BK activity [5]: 17%
